Data published in patent US4992432A, “3-phenyl-thiazepinones as calcium regulating agents” (Hoffmann-La Roche Inc., priority 1990, dated 1991).
Structures can show the parent of a compound that is named as a salt.

System: isolated rat aortic strips
Test: Contraction of Rat Aortic Strips (inhibition of calcium-induced contracture, calcium channel blocking activity)
Assay type: cell-based
Details: for inhibition at 0.3 µM: Rattus norvegicus, 3×10^-7 M compound, 15 minutes prior to and during calcium curve, 2 mM Ca++, 45 mM potassium, as compared to the control, read-out: % Inhibition (effect on the 2mM Ca++ contracture); for reduction in responsiveness to / contracture at 2 mM Ca++ (in words): 3×10^-7 M, 15 minute exposure
Method: The calcium channel blocking activity of compounds of formula I was determined by measuring the effect of compounds of formula I on isolated rat aortic strips. Contraction of Rat Aortic Strips Aortas were excised from rats, placed in Krebs-Henseleit solution, modified so as to be calcium free, with a depolarized level of potassium (45 mM), and 0.02 mM EDTA. The aorta was then helically cut into a strip. This strip was then divided into four equal segments which were hung in isolated tissue chambers, attached to the appropriate tranducers and subjected to 500 mg basal tension. After a period of stabilization under these conditions, calcium was introduced into the bath and the tissues contracted in a concentration dependent manner. When no calcium is available in the bathing media, and the potential dependent calcium channels are opened by the high potassium level, contractility is dependent on the level of calcium introduced into the bath. By adding increments of calcium into the bath, a reproducible concentration-dependent contracture can be obtained. […] The number for untreated controls was derived by measuring contracture for two runs where calcium alone was added. […] The inhibition in contractile response at 2mMCa++was measured as a per cent inhibition as compared to the control.

Compound	inhibition at 0.3 µM [%]	reduction in responsiveness to / contracture at 2 mM Ca++ (in words)
COc1ccc([C@@H]2SC=C(c3ccccc3)N(CCN(C)C)C(=O)[C@@H]2OC)cc1 (relative stereo) [C, cis-rac.6,7-Dihydro-6-methoxy-7-(4-methoxyphenyl)-4[2-(dimethylamino)ethyl-3-phenyl-1,4-thiazepin-5(4H)-one hydrochloride]	-22.1	–
COc1ccc([C@@H]2Sc3ccccc3N(CCN(C)C)C(=O)[C@@H]2OC(C)=O)cc1 [Diltiazem, reference compound]	-77	marked reduction in responsiveness
COc1ccc([C@@H]2SC=C(c3ccccc3)N(CCN(C)C)C(=O)[C@@H]2O)cc1 [E]	-13	–
COc1ccc([C@H]2SC=C(c3ccccc3)N(CCN(C)C)C(=O)[C@H]2O)cc1 (racemic) [D, cis-rac.-6,7-Dihydro-6-hydroxy-7-(4-methoxyphenyl)-4[2-(dimethylamino)ethyl]-3-phenyl-1,4-thiazepin-5(4H)-one hydrochloride]	-16.5	–
COc1ccc([C@H]2SC=C(c3ccccc3)N(CCN(C)C)C(=O)[C@H]2OC(C)=O)cc1 [F, (-)-cis-6-(Acetyloxy)-6,7-dihydro-7-(4-methoxyphenyl) -4-[2-(dimethylamino)ethyl]-3-phenyl-1,4-thiazepin-5 (4H)-one [S-(R,* R,*)]-2,3-dihydroxybutanedioic acid salt]	-9.1	–
COc1ccc([C@@H]2SC=C(c3ccccc3)N(CCN(C)C)C(=O)[C@H]2O)cc1 (racemic) [H, trans-rac.-6,7-Dihydro-6-hydroxy-7-(4-methoxyphenyl) -4-[2-(dimethylamino)ethyl]-3-phenyl-1,4-thiazepin-5 (4H)-one (E)-2-butenedioate]	-5.6	–
COc1ccc([C@@H]2SC=C(c3ccccc3)N(CCN(C)C)C(=O)[C@@H]2OC(C)=O)cc1 [Compound A, (+)-cis-6-(Acetyloxy)-6,7-dihydro-7-(4-methoxyphenyl) 4-[2-(dimethylamino)ethyl]-3-phenyl-1,4-thiazepin-5-(4H)-one hydrochloride]	-63	inhibited almost two thirds of the contracture
COc1ccc([C@@H]2SC=C(c3ccccc3)N(CCN(C)C)C(=O)[C@@H]2OC(C)=O)cc1 (relative stereo) [Compound B, cis-rac.6-(Acetyloxy)-6,7-dihydro-7-(4-methoxyphenyl) -4-[2-(dimethylamino)ethyl]-3-phenyl-1,4-thiazepin-5(4H)-one hydrochloride]	-26.8	–
COc1ccc([C@@H]2SC=C(c3ccccc3)N(CCN(C)C)C(=O)[C@H]2OC(C)=O)cc1 (racemic) [G, trans-rac.-6-(Acetyloxy)-6,7-dihydro-7-(4-methoxy-phenyl)-4-[2-(dimethylamino)ethyl]-3-phenyl-1,4-thiazepin-5(4H)-one hydrochloride]	-8.4	–
